Reference: paper PMC10418599, “Quercetins, Chlorogenic Acids and Their Colon Metabolites Inhibit Colon Cancer Cell Proliferation at Physiologically Relevant Concentrations” (International Journal of Molecular Sciences, 2023)

Key:
SW480 cell line [1] = assay: Cell metabolism of phenolic compounds (UHPLC-HR-MS analysis of cell media); assay type: in vitro ADME, Human; settings: for Concentration of substrate in cell medium: initial 50 μmol/L
Description: To analyze the metabolism of phenolic compounds by Caco-2 and SW480 cells, the cell culture media were withdrawn after 0, 24, 48 and 72 h of incubation. Phenolic compounds were extracted from the culture media by following the procedure reported in Sala et al.. Briefly, 100 μL of cold methanol was mixed with 100 μL of cell media and vortexed for 1 min. The mixture was then centrifuged at 10,000× g (4 °C, 5 min) and the supernatant was injected, after appropriate dilution, in an ultra-high-performance liquid chromatography high-resolution mass spectrometry system (UHPLC-HR-MS).
The HR-MS system consisted of a UHPLC Ultimate 3000 separation module, equipped with a C18 column (Acquity UPLC HSS C18 reversed phase, 2.1 × 100 mm, 1.8 μm particle size, Waters, Milan, Italy) and coupled with a Q Exactive Hybrid Quadrupole-Orbitrap Mass Spectrometer (Thermo Scientific, San Jose, CA, USA). Mobile phases consisted of a mixture of water containing formic acid (0.1%) (mobile phase A) and acetonitrile containing formic acid (0.1%) (mobile phase B). The gradient began at 1% B, reaching 40% B over 20 min. To wash the column, the mobile phase B concentration was raised to 99% over 6 min and kept at 99% for 3 min before returning to the initial conditions. The MS and MS/MS conditions are fully described in Martini et al..
Quantification was carried out by building external calibration curves with the available standard compounds.

SW480 cell line [2] = assay: Anti-proliferative assay (MTS cell proliferation assay); assay type: cell-based, Human; settings: for Percentage of inhibition of SW480 growth: 100 μmol/L, 72 h; for IC50: maximum tested concentration 200 μmol/L
Description: (§1) Human colon cancer Caco-2 and SW480 cell lines were cultured and grown as previously reported. […] Incubation was carried out for 24, 48 and 72 h. Data were compared with a control solution containing 0.5% DMSO in cell medium and representing 100% proliferation. In addition, six different mixes were prepared to simulate the simultaneous presence of parent phenolic compounds and metabolites by mimicking the possible human inter-individual variability in colon metabolism of phenolic compounds. Two sets of mixes were prepared to consider the colon metabolism of quercetins and chlorogenic acids. […] For each set of mixtures (QUE and CGA mixtures), three different mixes were formulated. One set of mixes mimicked the low-producers metabotype and contained 90% parent compounds and 10% metabolites (mixes QUE-LP and CGA-LP). Another set of mixes was prepared to simulate the high-producers metabotype and contained 10% parent compounds and 90% metabolites (mixes QUE-HP and CGA-HP). Finally, a third set of mixes was prepared with equimolar amounts of all the compounds (mixes QUE-EQ and CGA-EQ). […] Cell proliferation was assessed by the MTS assay as previously described. […] The IC50 values were calculated through non-linear regression analysis by plotting the base-10 logarithm of the phenolic compound concentration vs. the percentage of inhibition.

Caco-2 cell line = assay: as above; assay type: cell-based, Human; settings: for IC50: maximum tested concentration 200 μmol/L
Description: as §1

[3] = after raspberry supplementation; ref 49 (Gill et al.); cited from earlier work

O=C(/C=C/c1ccc(O)c(O)c1)OC1CC(O)(C(=O)O)CC(OC(=O)/C=C/c2ccc(O)c(O)c2)C1O (stereo not shown) [3,5-di-O-Caffeoylquinic acid, 3,5-di-O-caffeoylquinic acid]
Concentration of substrate in cell medium (SW480 cell line [1]; SW480, 24 h): 7.13 ± 0.13 µM | Concentration of substrate in cell medium (SW480 cell line [1]; SW480, 48 h): 5.41 ± 0.07 µM | Concentration of substrate in cell medium (SW480 cell line [1]; SW480, 72 h): 6.17 ± 0.05 µM | Percentage of inhibition of SW480 growth (SW480 cell line [2]): 10.9% | IC50 (SW480 cell line [2]; SW480, 48 h of incubation): > 200 µM | IC50 (SW480 cell line [2]; SW480, 72 h of incubation): > 200 µM | Inhibition of Caco-2 growth (Caco-2 cell line; 100 μmol/L, 72 h): almost complete inhibition | IC50 (Caco-2 cell line; Caco-2, 24 h of incubation): > 200 µM | IC50 (Caco-2 cell line; Caco-2, 48 h of incubation): 27.5 ± 1 µM | IC50 (Caco-2 cell line; Caco-2, 72 h of incubation): 8.8 ± 0.2 µM

O=C(O)Cc1ccc(O)c(O)c1 [3-(3′,4′-Dihydroxyphenyl)acetic acid, 3-(3′,4′-dihydroxyphenyl)acetic acid]
Maximum value in human fecal water [3]: 442 µmol/L | Concentration of substrate in cell medium (SW480 cell line [1]; SW480, 24 h): 21.62 ± 0.48 µM | Concentration of substrate in cell medium (SW480 cell line [1]; SW480, 48 h): 15.84 ± 0.09 µM | Concentration of substrate in cell medium (SW480 cell line [1]; SW480, 72 h): 10.30 ± 0.36 µM | IC50 (SW480 cell line [2]; Homo sapiens, SW480, 48 h of incubation): > 200 µM | IC50 (SW480 cell line [2]; Homo sapiens, SW480, 72 h of incubation): 92.2 ± 6.9 µM | IC50 (Caco-2 cell line; Homo sapiens, Caco-2, 24 h of incubation): 79.5 ± 1.4 µM | IC50 (Caco-2 cell line; Homo sapiens, Caco-2, 48 h of incubation): 14.7 ± 0.8 µM | IC50 (Caco-2 cell line; Homo sapiens, Caco-2, 72 h of incubation): 3 ± 0.1 µM

O=C(/C=C/c1ccc(O)c(O)c1)O[C@@H]1C[C@](O)(C(=O)O)C[C@@H](O)[C@H]1O [3-O-Caffeoylquinic acid, 3-O-caffeoylquinic acid]
Concentration of substrate in cell medium (SW480 cell line [1]; SW480, 24 h, listed as 3-O-Caffeoylquinic acid trans): 23.34 ± 0.07 µM | Concentration of newly formed metabolite (SW480 cell line [1]; SW480, 24 h, substrate 3,5-di-O-Caffeoylquinic acid 50 μmol/L, listed as 3-O-Caffeoylquinic acid trans): 0.09 ± 0.01 µM | Concentration of substrate in cell medium (SW480 cell line [1]; SW480, 48 h, listed as 3-O-Caffeoylquinic acid trans): 19.54 ± 0.07 µM | Concentration of newly formed metabolite (SW480 cell line [1]; SW480, 48 h, substrate 3,5-di-O-Caffeoylquinic acid 50 μmol/L, listed as 3-O-Caffeoylquinic acid trans): 0.13 ± 0.01 µM | Concentration of newly formed metabolite (SW480 cell line [1]; SW480, 48 h, substrate 5-O-Caffeoylquinic acid trans 50 μmol/L, listed as 3-O-Caffeoylquinic acid trans): 5.14 ± 0.07 µM | Concentration of substrate in cell medium (SW480 cell line [1]; SW480, 72 h, listed as 3-O-Caffeoylquinic acid trans): 19.83 ± 0.05 µM | Concentration of newly formed metabolite (SW480 cell line [1]; SW480, 72 h, substrate 5-O-Caffeoylquinic acid trans 50 μmol/L, listed as 3-O-Caffeoylquinic acid trans): 5.55 ± 0.09 µM | Percentage of inhibition of SW480 growth (SW480 cell line [2]): 29.6% | IC50 (SW480 cell line [2]; SW480, 48 h of incubation): > 200 µM | IC50 (SW480 cell line [2]; SW480, 72 h of incubation): > 200 µM

O=C(/C=C/c1ccc(O)c(O)c1)O[C@@H]1C[C@](O)(C(=O)O)C[C@@H](O)[C@H]1O [5-O-Caffeoylquinic acid, 5-O-caffeoylquinic acid]
Concentration of substrate in cell medium (SW480 cell line [1]; SW480, 24 h, listed as 5-O-Caffeoylquinic acid trans): 16.76 ± 0.01 µM | Concentration of newly formed metabolite (SW480 cell line [1]; SW480, 24 h, substrate 3,5-di-O-Caffeoylquinic acid 50 μmol/L, listed as 5-O-Caffeoylquinic acid trans): 0.08 ± 0.01 µM | Concentration of newly formed metabolite (SW480 cell line [1]; SW480, 24 h, substrate 3-O-Caffeoylquinic acid trans 50 μmol/L, listed as 5-O-Caffeoylquinic acid trans): 4.95 ± 0.04 µM | Concentration of substrate in cell medium (SW480 cell line [1]; SW480, 48 h, listed as 5-O-Caffeoylquinic acid trans): 17.52 ± 0.08 µM | Concentration of newly formed metabolite (SW480 cell line [1]; SW480, 48 h, substrate 3-O-Caffeoylquinic acid trans 50 μmol/L, listed as 5-O-Caffeoylquinic acid trans): 7.37 ± 0.07 µM | Concentration of substrate in cell medium (SW480 cell line [1]; SW480, 72 h, listed as 5-O-Caffeoylquinic acid trans): 13.96 ± 0.03 µM | Concentration of newly formed metabolite (SW480 cell line [1]; SW480, 72 h, substrate 3,5-di-O-Caffeoylquinic acid 50 μmol/L, listed as 5-O-Caffeoylquinic acid trans): 0.29 ± 0.01 µM | Concentration of newly formed metabolite (SW480 cell line [1]; SW480, 72 h, substrate 3-O-Caffeoylquinic acid trans 50 μmol/L, listed as 5-O-Caffeoylquinic acid trans): 11.32 ± 0.43 µM | Percentage of inhibition of SW480 growth (SW480 cell line [2]): 14.7% | IC50 (SW480 cell line [2]; SW480, 48 h of incubation): > 200 µM | IC50 (SW480 cell line [2]; SW480, 72 h of incubation): > 200 µM
